Laboratory results: patent EP1156056A1, “5-GLYCOSYLOXY-6-HYDROXYNAPHTHO 2,3-f]QUINOLINE-7,12-DIONE HAVING ANTICANCER ACTIVITIES” (ZAIDAN HOJIN BISEIBUTSU KAGAKU KENKYU KAI, priority 1999, dated 2000)

Test system: all human cancer cells as tested
Test: Inhibition of proliferation of cancer cells in culture, all human cancer cells as tested
Assay type: cell-based
Description: A culture medium for cancer cells was put into test tubes. To the culture medium in each tube, there was transplanted each of such various mouse cancer cells or human cancer cells as shown in Table 1 below. The cells so transplanted were cultivated under the conditions at 37°C in an air atmosphere containing 5 % CO2. To the medium containing the cancer cells so cultivated, there was added said Compounds A, B, D, E or F of this invention at different concentrations, as the test compound. […] As the comparative compound, adriamycin now clinically used was tested to repeat the test in the same way.
Namely, they are mouse colon cancer (colon 26), mouse B-cell lymphoma (LB32T), mouse lymphoma (L-1210), human cervical cancer (HeLa), human acute promyeloleukemia (HL60), human prostatic cancer (PC3), human pudendal squamous cell carcinoma (A431), human pulmonary carcinoma (PC6), human mastocarcinoma (MCF7), human esophageal carcinoma (TT), human prostatic cancer (LNcap) and human colon cancer (DLD-1). […]

For COc1c2c(c3cccnc3c1O[C@@H]1O[C@@H](C)[C@@H](O)[C@@H](O)[C@H]1F)C(=O)c1ccccc1C2=O [5-(2,6-dideoxy-2-fluoro-α-L-talopyranosyloxy)-6-methoxy-naphtho[2,3-f]-quinoline-7,12-dione], the IC50 was less than 100 µg/mL and the anticancer activity was “does not exhibit any appreciable anticancer activity”.
